# Results taken from US8921071B2, “Targeting poly-gamma-glutamic acid to treat Staphylococcus epidermidis and related infections” (priority 2005, dated 2014).
# No end group written: not given here.
# System: S. epidermidis
# Test: Peptide bacterial killing assay
# Type: cell-based, Staphylococcus epidermidis
# Conditions: S. epidermidis Δcap versus wild-type; approximately 10^5 cells; 0-40 μg/ml peptide; 2 hours at 37° C.; survivors counted by plating
# Protocol: S. epidermidis cultures were harvested, washed with PBS buffer, and resuspended in 10 mM sodium phosphate buffer (pH 7.0). Bacterial killing assays were performed using a final concentration of approximately 10^5 S. epidermidis cells in each sample. Antimicrobial peptides were dissolved in the following solutions: human β-defensin 3, 10 mM acetic acid, and LL-37, 10% acetonitrile with 0.1% trifluoroacetic acid. The bacteria were exposed to a range of antimicrobial peptide concentrations (0, 5, 10, 20, 30, and 40 μg/ml). An equal volume of the respective peptide dilution buffer was applied to control samples. Samples were incubated at 37° C. for 2 hours and appropriate dilution series of the samples were plated on TSB agar. Survivor S. epidermidis cells were enumerated after 24 hours of incubation at 37° C. The percentage of killed S. epidermidis was calculated using the formula (1−[CFUpeptide/CFUcontrol])×100.
# Resistance to cationic antimicrobial peptides was determined by incubating washed S. epidermidis cells (approximately 10^5) with LL-37 or human β-defensin 3 in various concentrations of antimicrobial peptides for 2 hours at 37° C. Thereafter, S. epidermidis survivor cells were counted by plating. Results are shown as dose-response curves. […] Values of significance were calculated against the wild-type (for Δcap) and Δcap (for capBCAD) strains.
row,Substance,resistance of the cap mutant strain to antibacterial peptide
1,"LL-37 (LLGDFFRKSKEKIGKEFKRIVQRIKDFLRNLVPRTES; Antibacterial peptide LL-37; UniProt P49913 134-170, looked up) [representative cationic antibacterial peptide from human skin and neutrophil specific granules]",significantly reduced resistance
2,"human β-defensin 3 (GIINTLQKYYCRVRGGRCAVLSCLPKEEQIGKCSTRGRKCCRRKK; ends and bridges not checked; cysteine pairing not given here; UniProt P81534 23-67, looked up) [representative cationic antibacterial peptide from human skin and neutrophil specific granules]",significantly reduced resistance
